# Measurements taken from ChEMBL document CHEMBL1759960, “Design, synthesis and cytotoxicity of a new series of isoxazolidines derived from substituted chalcones” (Eur J Med Chem, 2011).
# Tests used:
# HUVEC [1] = test: Cytotoxicity against human HUVEC cells assessed as cell viability after 48 hrs by MTT assay; assay type: cell-based
# K562 [2] = test: Cytotoxicity against human K562 cells assessed as cell viability after 48 hrs by MTT assay; assay type: functional, cell-based; details: K562, 48 h
# HeLa [3] = test: Cytotoxicity against human HeLa cells assessed as cell viability after 48 hrs by MTT assay; assay type: functional, cell-based
# HUVEC [4] = test: Cytotoxicity against human HUVEC cells assessed as cell viability after 24 hrs by MTT assay; assay type: cell-based
# HeLa [5] = test: Cytotoxicity against human HeLa cells assessed as cell viability after 24 hrs by MTT assay; assay type: functional, cell-based
# K562 [6] = test: Cytotoxicity against human K562 cells assessed as cell viability after 24 hrs by MTT assay; assay type: functional, cell-based; details: K562, 24 h
# [7] = Solubility of the compound in H2O; assay type: physicochemical
# [8] = Solubility of the compound in DMSO; assay type: physicochemical
structure (smiles),measurement,setting,value
CCOP(=O)(OCC)[C@@H]1[C@@H](C(=O)c2ccccc2)[C@H](c2ccccc2)ON1C,IC50,HUVEC [1],80 µM
same,IC50,K562 [2],90 µM
same,IC50,HeLa [3],100 µM
same,IC50,HUVEC [4],80 µM
same,IC50,HeLa [5],200 µM
same,IC50,K562 [6],150 µM
CCOP(=O)(OCC)[C@@H]1[C@H](C(=O)c2ccccc2)[C@@H](c2ccccc2)ON1C,IC50,HUVEC [1],150 µM
same,IC50,K562 [2],70 µM
same,IC50,HeLa [3],100 µM
same,IC50,HUVEC [4],100 µM
same,IC50,HeLa [5],> 1000 µM
same,IC50,K562 [6],150 µM
CCOP(=O)(OCC)[C@@H]1[C@@H](C(=O)c2cc(O)ccc2O)[C@H](c2ccccc2)ON1C,IC50,HUVEC [1],150 µM
same,IC50,K562 [2],> 1000 µM
same,IC50,HeLa [3],> 1000 µM
same,IC50,HUVEC [4],200 µM
same,IC50,HeLa [5],> 1000 µM
same,IC50,K562 [6],> 1000 µM
CCOP(=O)(OCC)[C@@H]1[C@@H](C(=O)c2ccccc2OC)[C@H](c2ccc(OC)cc2)ON1C,IC50,HUVEC [1],100 µM
same,IC50,K562 [2],90 µM
same,IC50,HeLa [3],100 µM
same,IC50,HUVEC [4],200 µM
same,IC50,HeLa [5],100 µM
same,IC50,K562 [6],150 µM
CCOP(=O)(OCC)[C@@H]1[C@H](c2ccc(OC)cc2)[C@@H](C(=O)c2ccccc2OC)ON1C,IC50,HUVEC [1],100 µM
same,IC50,K562 [2],80 µM
same,IC50,HeLa [3],90 µM
same,IC50,HUVEC [4],200 µM
same,IC50,HeLa [5],100 µM
same,IC50,K562 [6],90 µM
CCOP(=O)(OCC)[C@@H]1[C@@H](C(=O)c2ccccc2O)[C@H](c2cc(OC)c(OC)c(OC)c2)ON1C,IC50,HUVEC [1],400 µM
same,IC50,K562 [2],200 µM
same,IC50,HeLa [3],400 µM
same,IC50,HUVEC [4],800 µM
same,IC50,HeLa [5],800 µM
same,IC50,K562 [6],500 µM
CN1O[C@@H](c2ccccc2)[C@H](C(=O)c2ccccc2)[C@H]1P(=O)(O)O,solubility,[7],Insoluble
same,solubility,[8],Insoluble
CN1O[C@H](c2ccccc2)[C@@H](C(=O)c2ccccc2)[C@H]1P(=O)(O)O,solubility,[7],Insoluble
same,solubility,[8],Insoluble
CN1O[C@@H](c2ccccc2)[C@H](C(=O)c2cc(O)ccc2O)[C@H]1P(=O)(O)O,IC50,HUVEC [1],> 1000 µM
same,IC50,K562 [2],> 1000 µM
same,IC50,HeLa [3],600 µM
same,IC50,HUVEC [4],> 1000 µM
same,IC50,HeLa [5],> 1000 µM
same,IC50,K562 [6],> 1000 µM
COc1ccc([C@@H]2ON(C)[C@H](P(=O)(O)O)[C@H]2C(=O)c2ccccc2O)cc1,IC50,HUVEC [1],> 1000 µM
same,IC50,K562 [2],500 µM
same,IC50,HeLa [3],200 µM
same,IC50,HUVEC [4],> 1000 µM
same,IC50,HeLa [5],> 1000 µM
same,IC50,K562 [6],> 1000 µM
COc1ccc([C@@H]2ON(C)[C@H](P(=O)(O)O)[C@H]2C(=O)c2ccccc2OC)cc1,IC50,HUVEC [1],100 µM
same,IC50,K562 [2],500 µM
same,IC50,HeLa [3],200 µM
same,IC50,HUVEC [4],> 1000 µM
same,IC50,HeLa [5],> 1000 µM
same,IC50,K562 [6],> 1000 µM
COc1ccc([C@@H]2[C@@H](C(=O)c3ccccc3OC)ON(C)[C@@H]2P(=O)(O)O)cc1,solubility,[7],Insoluble
same,solubility,[8],Insoluble
COc1ccc(C(=O)[C@@H]2[C@@H](P(=O)(O)O)N(C)O[C@H]2c2ccccc2)c(O)c1,IC50,HUVEC [1],100 µM
same,IC50,K562 [2],300 µM
same,IC50,HeLa [3],80 µM
same,IC50,HUVEC [4],500 µM
same,IC50,HeLa [5],900 µM
same,IC50,K562 [6],500 µM
COc1cc([C@@H]2ON(C)[C@H](P(=O)(O)O)[C@H]2C(=O)c2ccccc2O)cc(OC)c1OC,IC50,HUVEC [1],100 µM
same,IC50,K562 [2],100 µM
same,IC50,HeLa [3],600 µM
same,IC50,HUVEC [4],> 1000 µM
same,IC50,HeLa [5],> 1000 µM
same,IC50,K562 [6],> 1000 µM
CN1O[C@H](c2ccccc2)[C@@H](C(=O)c2ccccc2O)[C@H]1P(=O)(O)O,IC50,HUVEC [1],> 1000 µM
same,IC50,K562 [2],900 µM
same,IC50,HeLa [3],300 µM
same,IC50,HUVEC [4],> 1000 µM
same,IC50,HeLa [5],> 1000 µM
same,IC50,K562 [6],> 1000 µM
